Reference: ChEMBL document CHEMBL4619820, “Development of Novel AKR1C3 Inhibitors as New Potential Treatment for Castration-Resistant Prostate Cancer” (J Med Chem, 2020)
pIC50: −log10 of the molar value. Calls of active or inactive are those of the source. The calls are words filed in the database; no cut-off is given here.

What follows are molecules tested on PC-3. Conditions: Homo sapiens, at 10 µM.
Description: Inhibition of cell proliferation of human PC3 cells over-expressing AKR1C3 at 10 uM incubated for 72 hrs by alamar blue assay

Structure (SMILES) | inhibition
N#CC(=C(/N)Sc1ccccc1N)/C(C#N)=C(\N)Sc1ccccc1N | inactive

These molecules were tested against T1, Androgen receptor (Homo sapiens) (UniProt P10275) (assay: Agonistic activity at AR in human 22Rv1 cells assessed as effect on cell number at 1 nM by CCK8 assay). Conditions: CWR22R.
T1 sequence (whole entry): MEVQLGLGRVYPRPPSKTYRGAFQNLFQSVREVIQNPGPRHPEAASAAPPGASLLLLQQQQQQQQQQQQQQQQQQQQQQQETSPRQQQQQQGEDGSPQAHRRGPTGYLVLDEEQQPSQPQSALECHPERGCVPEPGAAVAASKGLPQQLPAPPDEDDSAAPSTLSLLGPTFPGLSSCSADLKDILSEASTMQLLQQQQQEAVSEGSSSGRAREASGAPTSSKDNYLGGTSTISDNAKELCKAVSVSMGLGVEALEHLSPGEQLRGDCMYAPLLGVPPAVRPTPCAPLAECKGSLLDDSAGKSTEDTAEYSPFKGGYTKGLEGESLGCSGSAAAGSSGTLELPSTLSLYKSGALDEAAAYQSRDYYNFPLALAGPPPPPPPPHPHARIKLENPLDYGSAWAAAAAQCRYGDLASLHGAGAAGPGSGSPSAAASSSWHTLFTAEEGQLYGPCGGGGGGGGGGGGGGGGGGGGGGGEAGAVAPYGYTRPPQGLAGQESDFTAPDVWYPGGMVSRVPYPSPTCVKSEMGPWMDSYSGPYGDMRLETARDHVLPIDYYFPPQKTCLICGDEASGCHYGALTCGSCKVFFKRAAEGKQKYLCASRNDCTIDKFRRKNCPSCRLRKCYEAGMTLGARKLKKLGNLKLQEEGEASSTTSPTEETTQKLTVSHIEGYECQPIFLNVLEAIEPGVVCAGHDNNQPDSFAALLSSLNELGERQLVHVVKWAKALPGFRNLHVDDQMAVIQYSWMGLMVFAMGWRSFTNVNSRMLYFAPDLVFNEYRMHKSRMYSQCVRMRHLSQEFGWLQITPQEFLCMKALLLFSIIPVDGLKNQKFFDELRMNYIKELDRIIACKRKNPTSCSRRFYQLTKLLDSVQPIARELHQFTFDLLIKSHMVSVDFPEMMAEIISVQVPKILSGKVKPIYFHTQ
Format: cell-based

Activity | Structure (SMILES)
inactive | N=c1oc2c(O)cccc2cc1C(=O)Nc1ccccc1O
inactive | CCc1ccccc1NC(=O)c1cc2cccc(O)c2oc1=N
inactive | N=c1oc2c(O)cccc2cc1C(=O)Nc1ccc(O)cc1
inactive | CCc1ccc(NC(=O)c2cc3cccc(O)c3oc2=N)cc1
inactive | N=c1oc2c(O)cccc2cc1C(=O)Nc1ccc(Cl)cc1
inactive | N=c1oc2c(O)cccc2cc1C(=O)Nc1ccccc1

Each molecule was assayed against T2, Aldo-keto reductase family 1 member C3 (Homo sapiens, UniProt P42330) (assay: Inhibition of recombinant AKR1C3 (unknown origin) assessed as reduction in S-tetralol-induced dehydrogenase activity by measuring NADPH level). Conditions: not given.
T2 sequence (P42330 whole entry): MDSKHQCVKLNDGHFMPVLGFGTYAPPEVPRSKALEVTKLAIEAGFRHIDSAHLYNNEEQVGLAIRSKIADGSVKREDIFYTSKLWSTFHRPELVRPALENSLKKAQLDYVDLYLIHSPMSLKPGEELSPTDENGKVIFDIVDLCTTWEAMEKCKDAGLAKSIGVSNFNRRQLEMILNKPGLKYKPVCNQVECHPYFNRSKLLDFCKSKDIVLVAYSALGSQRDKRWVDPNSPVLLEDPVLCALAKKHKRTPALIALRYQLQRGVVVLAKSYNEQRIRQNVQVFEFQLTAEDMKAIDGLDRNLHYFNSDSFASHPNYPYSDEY

pIC50 | Structure (SMILES)
< 5.00 | N=c1oc2c(O)cccc2cc1C(=O)Nc1ccccc1O
7.68 | CCc1ccccc1NC(=O)c1cc2cccc(O)c2oc1=N
< 5.00 | N=c1oc2c(O)cccc2cc1C(=O)Nc1ccc(O)cc1
7.35 | CCc1ccc(NC(=O)c2cc3cccc(O)c3oc2=N)cc1
7.28 | N=c1oc2c(O)cccc2cc1C(=O)Nc1ccc(Cl)cc1
7.44 | N=c1oc2c(O)cccc2cc1C(=O)Nc1ccccc1
